# According to publication PMC12880750, “Mechanistic insights and in vivo HIV suppression by the BRD4-targeting small molecule ZL0580” (PLOS Pathogens, 2026):
# What was measured:
# [1] = system: BRD4-knockout (KO) J-Lat cells; assay: RT-qPCR of differentially expressed genes, BRD4-KO J-Lat cells; format: cell-based, human; conditions: same treatments
# Protocol: To validate the RNA-Seq results, RT-qPCR analysis was performed on a subset of differentially expressed genes (DEGs) (Fig 3E). Eight representative DEGs were selected based on statistical significance (adjusted p values) and their involvement in key pathways identified by GSEA, including lipid metabolism/cholesterol biosynthesis (HMGCS1, SQLE, DHCR7) and cytokine signaling (ITK and DUSP8). Relative gene expression levels were normalized to the housekeeping gene GAPDH. […] As an additional control, RT-qPCR was also performed on RNA isolated from BRD4-knockout (KO) J-Lat cells that received the same treatments. The generation and characterization of BRD4-KO J-Lat cells were described previously.
# RT-qPCR was performed as previously reported.
# [2] = system: CDK9 binding to HIV 5′-LTR in J-Lat cells (10.6); assay: ChIP-qPCR of CDK9 binding to HIV 5'-LTR; format: cell-based, human; conditions: PMA 50ng/ml, 24 hours
# Protocol: Twenty-four hours later, cells were subjected to ChIP-qPCR using an anti-CDK9 antibody, with isotype IgG as the ChIP control.
# 24 hours after treatments, ChIP-qPCR was performed using a CDK9-specific antibody to examine the recruitment of CDK9 to HIV 5’-LTR in J-Lat cells. ChIP using an isotype IgG was included for normalization. Data were shown as fold change in the precipitated HIV 5′ LTR by the CDK9 antibody relative to the control isotype IgG for each treatment condition.
# ChIP was performed using a method reported previously [41]. About 15 × 10⁶ J-Lat cells were treated according to the conditions described in the Main Text. After treatment, cells were collected, washed once with PBS, and resuspended in 10 mL PBS. To cross-link protein–DNA complexes, cells were fixed with 37% formaldehyde, and the reaction was quenched by adding 10Xglycine and incubating for 5 min at room temperature. The cells were then pelleted by centrifugation, and the pellets were incubated in ice-cold lysis buffer for 30 min. […] After extensive washing with the appropriate ChIP buffers, immune complexes were eluted, reverse cross-linked, and treated with proteinase K. DNA was purified using phenol–chloroform extraction and subsequently analyzed by qPCR. […] ChIP-qPCR results were quantified using the fold-enrichment method as previously reported [41].
SMILES,Contrasting regulatory effects on representative DEGs in the absence of BRD4 [1],Increase in CDK9 occupancy at the HIV promoter relative to NC [2]
"Cc1sc2c(c1C)C(c1ccc(Cl)cc1)=N[C@@H](CC(=O)OC(C)(C)C)c1nnc(C)n1-2 [JQ1, reference compound]",largely abolished,–
"CCCCCCCCCCCCCC(=O)O[C@@H]1[C@@H](C)[C@@]2(O)[C@@H](C=C(CO)C[C@]3(O)C(=O)C(C)=C[C@@H]23)[C@@H]2C(C)(C)[C@]12OC(C)=O [PMA, reference compound]",–,~ 19 fold
